# Source: US8680272B2, “3-arylethynyl substituted quinazolinone compounds” (Council of Scientific & Industrial Research, priority 2011, dated 2014)
# Tests used:
# HOP-62 = test: Anticancer activity, SRB assay, non-small lung cell line HOP-62; format: cell-based, human; details: Homo sapiens; Non-small lung HOP-62; 48 h continuous drug exposure; —^b means GI50 values not attained at the concentrations used; read-out: Growth Inhibition GI50
# Method: (§1) Some of biological activity studies were carried out at the National Cancer Institute (NCI), Maryland, USA.
# (§2) The compounds were evaluated for anticancer activity against sixty human cancer cells derived from nine cancer types (leukemia cell line, non-small-cell lung cell line, colon cell line, CNS cell line, melanoma cell line, ovarian cell line, prostate cell line, renal cell line and breast cancer cell line) as shown in Table 1. For each compound, dose response curves for each cell line were measured at a minimum of five concentrations at 10 fold dilutions. A protocol of 48 h continuous drug exposure was used and a sulforhodamine B (SRB) protein assay was used to estimate cell viability or growth.
# [1] = tested on: six breast cancer cell line (MCF-7, MDA-MB-231/ATCC, HS 578T, TD-47D, MDA-MB-468 and BT-549); test: Anticancer activity, SRB assay, breast panel; format: cell-based, human; details: for mean graph midpoint values (MG_MID) of log10 TGI (Log10TGI50) / mean graph midpoint values (MG_MID) of Log10LC50 / mean graph midpoint values (MG_MID) of Log10GI50: Breast; for mean graph midpoint values (MG_MID) of log10 TGI (Log10TGI50): log value of concentration of the compound resulting in total inhibition of net cell growth; for mean graph midpoint values (MG_MID) of Log10LC50: log value of the concentration of compounds leading to 50% net cell death; for mean graph midpoint values (MG_MID) of Log10GI50: log values of concentration in mol/L causing 50% inhibition of net cell growth; for GI50: Homo sapiens, six breast cancer cell line, exposure period of at least 48 h, read-out: GI50 (range over the panel)
# Method: as §1, §2
# KM12 = test: Anticancer activity, SRB assay, colon cell line KM12; format: cell-based; details: Homo sapiens, 48 h continuous drug exposure, read-out: Growth Inhibition GI50
# Method: as §1, §2
# A498 = test: Anticancer activity, SRB assay, renal cell line A498; format: cell-based, human; details: Homo sapiens, 48 h continuous drug exposure, —^b means GI50 values not attained at the concentrations used, read-out: Growth Inhibition GI50
# Method: as §1, §2
# MDA-MB-435 = test: Anticancer activity, SRB assay, melanoma cell line MDA-MB-435; format: cell-based, human; details: Homo sapiens; Melanoma MDA-MB-435; 48 h continuous drug exposure; —^b means GI50 values not attained at the concentrations used; read-out: Growth Inhibition GI50
# Method: as §1, §2
# MCF7 = test: Anticancer activity, SRB assay, breast cell line MCF7; format: cell-based; details: Homo sapiens, 48 h continuous drug exposure, read-out: Growth Inhibition GI50
# Method: as §1, §2
# SF-268 = test: Anticancer activity, SRB assay, CNS cell line SF-268; format: cell-based, human; details: Homo sapiens; CNS SF-268; 48 h continuous drug exposure; —^b means GI50 values not attained at the concentrations used; read-out: Growth Inhibition GI50
# Method: as §1, §2
# [2] = tested on: sixty human cancer cell lines derived from nine cancer types; test: Anticancer activity against sixty human cancer cell lines; format: cell-based
# Method: as §1, §2
# UACC-62 = test: Anticancer activity, SRB assay, melanoma cell line UACC-62; format: cell-based; details: Homo sapiens; Melanoma UACC-62; 48 h continuous drug exposure; read-out: Growth Inhibition GI50
# Method: as §1, §2
# UO-31 = test: Anticancer activity, SRB assay, renal cell line UO-31; format: cell-based, human; details: Homo sapiens; Renal UO-31; 48 h continuous drug exposure; —^b means GI50 values not attained at the concentrations used; read-out: Growth Inhibition GI50
# Method: as §1, §2
# [3] = Anticancer activity, SRB assay, non-small cell lung panel; format: cell-based, human; details: Homo sapiens; nine non-small cell lung cancer cell lines; exposure period of at least 48 h; read-out: GI50 (range over the panel)
# Method: as §1, §2
# [4] = tested on: nine non-small cell lung cancer cell lines (A549/ATCC, EKVX, HOP-62, HOP-92, NCI-H226, NCI-H23, NCI-H322M, NCI-H460 and NCI-H522); test: as above; format: cell-based, human; details: Non-small cell lung; for mean graph midpoint values (MG_MID) of log10 TGI (Log10TGI50): log value of concentration of the compound resulting in total inhibition of net cell growth; for mean graph midpoint values (MG_MID) of Log10LC50: log value of the concentration of compounds leading to 50% net cell death; for mean graph midpoint values (MG_MID) of Log10GI50: log values of concentration in mol/L causing 50% inhibition of net cell growth
# Method: as §1, §2
# [5] = tested on: six CNS cancer cell line (SF-268, SF-295, SF-539, SNB-19, SNB-75 and U251); test: Anticancer activity, SRB assay, CNS panel; format: cell-based, human; details: for mean graph midpoint values (MG_MID) of log10 TGI (Log10TGI50) / mean graph midpoint values (MG_MID) of Log10LC50 / mean graph midpoint values (MG_MID) of Log10GI50: CNS; for mean graph midpoint values (MG_MID) of log10 TGI (Log10TGI50): log value of concentration of the compound resulting in total inhibition of net cell growth; for mean graph midpoint values (MG_MID) of Log10LC50: log value of the concentration of compounds leading to 50% net cell death; for mean graph midpoint values (MG_MID) of Log10GI50: log values of concentration in mol/L causing 50% inhibition of net cell growth; for GI50: Homo sapiens, six CNS cancer cell line, exposure period of at least 48 h, read-out: GI50 (range over the panel)
# Method: as §1, §2
# SK-MEL-2 = test: Anticancer activity, SRB assay, melanoma cell line SK-MEL-2; format: cell-based, human; details: Homo sapiens; Melanoma SK-MEL-2; 48 h continuous drug exposure; —^b means GI50 values not attained at the concentrations used; read-out: Growth Inhibition GI50
# Method: as §1, §2
# U251 = test: Anticancer activity, SRB assay, CNS cell line U251; format: cell-based; details: Homo sapiens, U-251, 48 h continuous drug exposure, read-out: Growth Inhibition GI50
# Method: as §1, §2
# OVCAR-5 = test: Anticancer activity, SRB assay, ovarian cell line OVCAR-5; format: cell-based, human; details: Homo sapiens; Ovarian OVCAR-5; 48 h continuous drug exposure; —^b means GI50 values not attained at the concentrations used; read-out: Growth Inhibition GI50
# Method: as §1, §2
# MOLT-4 = test: Anticancer activity, SRB assay, leukemia cell line MOLT-4; format: cell-based; details: Homo sapiens; Leukemia MOLT-4; 48 h continuous drug exposure; read-out: Growth Inhibition GI50
# Method: as §1, §2
# HL-60(TB) = test: Anticancer activity, SRB assay, leukemia cell line HL-60(TB); format: cell-based; details: Homo sapiens; Leukemia HL-60(TB); 48 h continuous drug exposure; read-out: Growth Inhibition GI50
# Method: as §1, §2
# [6] = tested on: seven ovarian cancer cell lines (IGROV1, OVCAR-3, OVCAR-4, OVCAR-5, OVCAR-8, NCI/ADR-RES and SK-OV-3); test: Anticancer activity, SRB assay, ovarian panel; format: cell-based, human; details: for GI50: Homo sapiens, seven ovarian cancer cell lines, exposure period of at least 48 h, read-out: GI50 (range over the panel); for mean graph midpoint values (MG_MID) of log10 TGI (Log10TGI50) / mean graph midpoint values (MG_MID) of Log10LC50 / mean graph midpoint values (MG_MID) of Log10GI50: Ovarian; for mean graph midpoint values (MG_MID) of log10 TGI (Log10TGI50): log value of concentration of the compound resulting in total inhibition of net cell growth; for mean graph midpoint values (MG_MID) of Log10LC50: log value of the concentration of compounds leading to 50% net cell death; for mean graph midpoint values (MG_MID) of Log10GI50: log values of concentration in mol/L causing 50% inhibition of net cell growth
# Method: as §1, §2
# SNB-75 = test: Anticancer activity, SRB assay, CNS cell line SNB-75; format: cell-based, human; details: Homo sapiens; CNS SNB-75; 48 h continuous drug exposure; —^b means GI50 values not attained at the concentrations used; read-out: Growth Inhibition GI50
# Method: as §1, §2
# SK-OV-3 = test: Anticancer activity, SRB assay, ovarian cell line SK-OV-3; format: cell-based, human; details: Homo sapiens; Ovarian SK-OV-3; 48 h continuous drug exposure; —^b means GI50 values not attained at the concentrations used; read-out: Growth Inhibition GI50
# Method: as §1, §2
# NCI-H322M = test: Anticancer activity, SRB assay, non-small lung cell line NCI-H322M; format: cell-based, human; details: Homo sapiens, NCI-H322M; Non-small lung NCl-H322M; 48 h continuous drug exposure; —^b means GI50 values not attained at the concentrations used; read-out: Growth Inhibition GI50
# Method: as §1, §2
# HT29 = test: Anticancer activity, SRB assay, colon cell line HT29; format: cell-based; details: Homo sapiens, HT-29, 48 h continuous drug exposure, read-out: Growth Inhibition GI50
# Method: as §1, §2
# HOP-92 = test: Anticancer activity, SRB assay, non-small lung cell line HOP-92; format: cell-based, human; details: Homo sapiens; Non-small lung HOP-92; 48 h continuous drug exposure; —^b means GI50 values not attained at the concentrations used; read-out: Growth Inhibition GI50
# Method: as §1, §2
# SF-295 = test: Anticancer activity, SRB assay, CNS cell line SF-295; format: cell-based, human; details: Homo sapiens; CNS SF-295; 48 h continuous drug exposure; —^b means GI50 values not attained at the concentrations used; read-out: Growth Inhibition GI50
# Method: as §1, §2
SMILES,GI50 (HOP-62),mean graph midpoint values (MG_MID) of log10 TGI (Log10TGI50) [1],mean graph midpoint values (MG_MID) of Log10LC50 [1],mean graph midpoint values (MG_MID) of Log10GI50 [1],GI50 [1],GI50 (KM12),GI50 (A498),GI50 (MDA-MB-435),GI50 (MCF7),GI50 (SF-268),in vitro anticancer activity (in words) [2],GI50 (UACC-62),GI50 (UO-31),GI50 [3],mean graph midpoint values (MG_MID) of log10 TGI (Log10TGI50) [4],mean graph midpoint values (MG_MID) of Log10LC50 [4],mean graph midpoint values (MG_MID) of Log10GI50 [4],mean graph midpoint values (MG_MID) of log10 TGI (Log10TGI50) [5],mean graph midpoint values (MG_MID) of Log10LC50 [5],mean graph midpoint values (MG_MID) of Log10GI50 [5],also measured
"Cc1cc(C#Cc2ccccc2)ccc1-n1c(/C=C/c2ccc(O)cc2)nc2ccccc2c1=O [Compound 4b, (E)-2-(4-Hydroxystyryl)-3-(2-methyl-4-(phenylethynyl)phenyl)quinazolin-4(3H)-one]",13.1 µM,−4.58,>−4.00,−5.54 mol/L,2.02 to 3.89 µM,3.24 µM,1.56 µM,2.82 µM,2.72 µM,4.56 µM,exhibiting an in vitro anticancer activity,3.48 µM,2.06 µM,2.22 to 13.1 µM,−4.32,−4.04,−5.47 mol/L,−4.21,>−4.00,−5.35 mol/L,GI50 [5]: 2.85 to 6.91 µM; GI50 (SK-MEL-2): 1.93 µM; GI50 (U251): 4.33 µM; GI50 (OVCAR-5): 4.59 µM; GI50 (MOLT-4): 2.36 µM; GI50 (HL-60(TB)): 1.66 µM; GI50 [6]: 3.09 to 20.6 µM; mean graph midpoint values (MG_MID) of log10 TGI (Log10TGI50) [6]: −4.23; mean graph midpoint values (MG_MID) of Log10LC50 [6]: >−4.00; mean graph midpoint values (MG_MID) of Log10GI50 [6]: −5.33 mol/L; GI50 (SNB-75): 3.66 µM; GI50 (SK-OV-3): 9.91 µM; GI50 (NCI-H322M): 2.93 µM; GI50 (HT29): 3.33 µM; GI50 (HOP-92): 2.5 µM; GI50 (SF-295): 2.85 µM
"Cc1cc(C#Cc2ccccc2)ccc1-n1c(/C=C/c2cc(O)ccc2O)nc2ccccc2c1=O [Compound 4c, (E)-2-(2,5-Dihydroxystyryl)-3-(2-methyl-4-(phenylethynyl)phenyl)quinazolin-4(3H)-one]",1.71 µM,−5.39,−4.66,−5.84 mol/L,1.14 to 1.61 µM,1.65 µM,0.37 µM,1.67 µM,1.45 µM,1.31 µM,exhibiting an in vitro anticancer activity,1.52 µM,1.16 µM,1.24 to 1.71 µM,−5.44,−4.91,−5.83 mol/L,−5.50,−5.15,−5.85 mol/L,GI50 [5]: 1.3 to 1.62 µM; GI50 (SK-MEL-2): 1.4 µM; GI50 (U251): 1.45 µM; GI50 (OVCAR-5): 1.39 µM; GI50 (MOLT-4): 1.14 µM; GI50 (HL-60(TB)): 0.634 µM; GI50 [6]: 1.39 to 2.45 µM; mean graph midpoint values (MG_MID) of log10 TGI (Log10TGI50) [6]: −5.31; mean graph midpoint values (MG_MID) of Log10LC50 [6]: −4.61; mean graph midpoint values (MG_MID) of Log10GI50 [6]: −5.72 mol/L; GI50 (SNB-75): 1.3 µM; GI50 (SK-OV-3): 1.83 µM; GI50 (NCI-H322M): 1.62 µM; GI50 (HT29): 1.95 µM; GI50 (HOP-92): 1.54 µM; GI50 (SF-295): 1.35 µM
